Assay results reported in the supplement of paper PMC10307832.

How the values were obtained:
Test in all cases: relative viability (nuclei count vs DMSO), 5 days (fraction); higher = more cells survive
[1] = tested on: 201T
Method in brief: (§1)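 After 5 days of treatment, lung cancer cells in 1536-well plates were fixed and stained in a single step (final 0.05% Triton X-100, 1% formaldehyde, 1 ug/ml Hoechst) and their nuclei counted on 4× images. Treatment had been applied by pin tool the day after seeding as one drug alone or as a fixed anchor-drug dose with five library-drug doses (not always all listed) in √10 steps. Relative viability is the nuclei count of treated wells divided by that of vehicle wells, and values are medians of duplicate plates.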

[2] = tested on: BEN
Method in brief: as §1

[3] = tested on: CAL-12T
Method in brief: as §1

[4] = tested on: HCC-827
Method in brief: as §1

[5] = tested on: LCLC-103H
Method in brief: as §1

[6] = tested on: LCLC-97TM1
Method in brief: as §1

[7] = tested on: LXF-289
Method in brief: as §1

[8] = tested on: NCI-H1395
Method in brief: as §1

[9] = tested on: NCI-H1437
Method in brief: as §1

[10] = tested on: NCI-H1792
Method in brief: as §1

[11] = tested on: NCI-H1793
Method in brief: as §1

[12] = tested on: NCI-H1944
Method in brief: as §1

[13] = tested on: NCI-H2087
Method in brief: as §1

[14] = tested on: NCI-H2228
Method in brief: as §1

[15] = tested on: NCI-H2405
Method in brief: as §1

[16] = tested on: NCI-H3122
Method in brief: as §1

[17] = tested on: NCI-H322M
Method in brief: as §1

[18] = tested on: NCI-H647
Method in brief: as §1

[19] = tested on: NCI-H727
Method in brief: as §1

[20] = tested on: RERF-LC-KJ
Method in brief: as §1

[21] = tested on: SK-LU-1
Method in brief: as §1

## CCN(CC)CCCCNc1ncc2cc(-c3cc(OC)cc(OC)c3)c(NC(=O)NC(C)(C)C)nc2n1 + C[C@]1(O)C[C@@H](c2nc(-c3ccc4ccc(-c5ccccc5)nc4c3)c3c(N)nccn32)C1 [Linsitinib] (partner 1 µM)
[1]; first compound 0.01 µM
  relative viability: 1.07
[1]; first compound 0.03162 µM
  relative viability: 1.02
[1]; first compound 0.1 µM
  relative viability: 1.07
[1]; first compound 0.3162 µM
  relative viability: 1.12
[1]; first compound 1 µM
  relative viability: 1.02
[2]; first compound 0.01 µM
  relative viability: 1.11
[2]; first compound 0.03162 µM
  relative viability: 0.838
[2]; first compound 0.1 µM
  relative viability: 0.894
[2]; first compound 0.3162 µM
  relative viability: 1.07
[2]; first compound 1 µM
  relative viability: 0.691
[3]; first compound 0.01 µM
  relative viability: 0.873
[3]; first compound 0.03162 µM
  relative viability: 0.954
[3]; first compound 0.1 µM
  relative viability: 0.729
[3]; first compound 0.3162 µM
  relative viability: 0.906
[3]; first compound 1 µM
  relative viability: 0.844
[4]; first compound 0.01 µM
  relative viability: 0.933
[4]; first compound 0.03162 µM
  relative viability: 0.987
[4]; first compound 0.1 µM
  relative viability: 1.01
[4]; first compound 0.3162 µM
  relative viability: 0.982
[4]; first compound 1 µM
  relative viability: 0.961
[5]; first compound 0.01 µM
  relative viability: 1.17
[5]; first compound 0.03162 µM
  relative viability: 1.11
[5]; first compound 0.1 µM
  relative viability: 1.2
[5]; first compound 0.3162 µM
  relative viability: 1.09
[5]; first compound 1 µM
  relative viability: 1.15
[6]; first compound 0.03162 µM
  relative viability: 0.176
[6]; first compound 0.1 µM
  relative viability: 0.23
[6]; first compound 0.3162 µM
  relative viability: 0.199
[6]; first compound 1 µM
  relative viability: 0.216
[7]; first compound 0.01 µM
  relative viability: 0.974
[7]; first compound 0.03162 µM
  relative viability: 1.02
[7]; first compound 0.1 µM
  relative viability: 1.03
[7]; first compound 0.3162 µM
  relative viability: 0.972
[7]; first compound 1 µM
  relative viability: 0.843
[8]; first compound 0.03162 µM
  relative viability: 1.02
[8]; first compound 0.1 µM
  relative viability: 0.935
[8]; first compound 0.3162 µM
  relative viability: 1.04
[8]; first compound 1 µM
  relative viability: 0.671
[9]; first compound 0.01 µM
  relative viability: 1.27
[9]; first compound 0.03162 µM
  relative viability: 1.05
[9]; first compound 0.1 µM
  relative viability: 1.13
[9]; first compound 0.3162 µM
  relative viability: 1.22
[9]; first compound 1 µM
  relative viability: 0.817
[10]; first compound 0.01 µM
  relative viability: 0.572
[10]; first compound 0.03162 µM
  relative viability: 0.501
[10]; first compound 0.1 µM
  relative viability: 0.475
[10]; first compound 0.3162 µM
  relative viability: 0.696
[10]; first compound 1 µM
  relative viability: 0.295
[11]; first compound 0.01 µM
  relative viability: 1.14
[11]; first compound 0.1 µM
  relative viability: 1.02
[11]; first compound 0.3162 µM
  relative viability: 1.03
[11]; first compound 1 µM
  relative viability: 0.656
[12]; first compound 0.01 µM
  relative viability: 1.27
[12]; first compound 0.03162 µM
  relative viability: 1.08
[12]; first compound 0.1 µM
  relative viability: 1.2
[12]; first compound 0.3162 µM
  relative viability: 1.3
[12]; first compound 1 µM
  relative viability: 1.12
[13]; first compound 0.01 µM
  relative viability: 0.912
[13]; first compound 0.03162 µM
  relative viability: 0.979
[13]; first compound 0.1 µM
  relative viability: 1.21
[13]; first compound 0.3162 µM
  relative viability: 1.02
[13]; first compound 1 µM
  relative viability: 0.883
[14]; first compound 0.01 µM
  relative viability: 0.741
[14]; first compound 0.03162 µM
  relative viability: 0.834
[14]; first compound 0.1 µM
  relative viability: 0.872
[14]; first compound 0.3162 µM
  relative viability: 1.07
[14]; first compound 1 µM
  relative viability: 0.635
[15]; first compound 0.01 µM
  relative viability: 0.76
[15]; first compound 0.03162 µM
  relative viability: 0.862
[15]; first compound 0.1 µM
  relative viability: 0.863
[15]; first compound 0.3162 µM
  relative viability: 1.03
[15]; first compound 1 µM
  relative viability: 0.817
[16]; first compound 0.01 µM
  relative viability: 1.05
[16]; first compound 0.03162 µM
  relative viability: 1.02
[16]; first compound 0.1 µM
  relative viability: 1.08
[16]; first compound 0.3162 µM
  relative viability: 1.04
[16]; first compound 1 µM
  relative viability: 1.01
[17]; first compound 0.01 µM
  relative viability: 0.99
[17]; first compound 0.03162 µM
  relative viability: 0.875
[17]; first compound 0.1 µM
  relative viability: 0.938
[17]; first compound 0.3162 µM
  relative viability: 0.982
[17]; first compound 1 µM
  relative viability: 0.891
[18]; first compound 0.01 µM
  relative viability: 1.31
[18]; first compound 0.03162 µM
  relative viability: 1.09
[18]; first compound 0.1 µM
  relative viability: 1.75
[18]; first compound 0.3162 µM
  relative viability: 1.52
[18]; first compound 1 µM
  relative viability: 1
[19]; first compound 0.01 µM
  relative viability: 0.297
[19]; first compound 0.03162 µM
  relative viability: 0.251
[19]; first compound 0.1 µM
  relative viability: 0.293
[19]; first compound 0.3162 µM
  relative viability: 0.363
[19]; first compound 1 µM
  relative viability: 0.301
[20]; first compound 0.01 µM
  relative viability: 0.891
[20]; first compound 0.03162 µM
  relative viability: 0.961
[20]; first compound 0.1 µM
  relative viability: 1.04
[20]; first compound 0.3162 µM
  relative viability: 1.01
[20]; first compound 1 µM
  relative viability: 0.887
[21]; first compound 0.01 µM
  relative viability: 1.24
[21]; first compound 0.03162 µM
  relative viability: 1.1
[21]; first compound 0.1 µM
  relative viability: 1.4
[21]; first compound 0.3162 µM
  relative viability: 1.49
[21]; first compound 1 µM
  relative viability: 0.988
